# Experimental data taken from patent publication US11877574B2, “Herbicidal oil dispersion and method” (Arysta LifeScience Inc., priority 2018, dated 2024).
# Experiments:
# [1] = Active ingredient assay and recovery on storage (Table 2); assay type: physicochemical
# [2] = Active ingredient assay on storage, SCB239-12 (Table 3); assay type: physicochemical
smiles,measurement,setting,value
"CCCCCCCC(=O)Oc1c(Br)cc(C#N)cc1Br [Bromoxynil, Bromoxynil Octanoate]",Assay (% w/w),"[1]; 1 month storage, 0° C.",31.04 % w/w
same,Assay (% w/w),"[1]; 1 month storage, 40° C.",31.46 % w/w
same,Assay (% w/w),"[1]; 1 month storage, T/C",31.27 % w/w
same,Assay (% w/w),"[1]; 1 month storage, −10° C.",31.44 % w/w
same,Assay (% w/w),"[1]; 2 month storage, 0° C.",31.30 % w/w
same,Assay (% w/w),"[1]; 2 month storage, 40° C.",30.78 % w/w
same,Assay (% w/w),"[1]; 2 month storage, T/C",30.99 % w/w
same,Assay (% w/w),"[1]; 2 month storage, −10° C.",31.34 % w/w
same,Assay (% w/w),"[1]; 2 wks, 54° C.",31.02 % w/w
same,Assay (% w/w),"[1]; 3 month storage, 0° C.",32.81 % w/w
same,Assay (% w/w),"[1]; 3 month storage, 25° C.",32.57 % w/w
same,Assay (% w/w),"[1]; 3 month storage, 40° C.",32.17 % w/w
same,Assay (% w/w),"[1]; 3 month storage, T/C",32.54 % w/w
same,Assay (% w/w),"[1]; 3 month storage, −10° C.",33.06 % w/w
same,Assay (% w/w),"[1]; 6 month storage, 25° C.",31.38 % w/w
same,Assay (% w/w),"[1]; 9 month storage, 25° C.",32.11 % w/w
same,Assay (% w/w),"[1]; 12 month storage, 25° C.",31.19 % w/w
same,Assay (% w/w),[1]; F/T Sample,31.42 % w/w
same,Assay (% w/w),[1]; initial,31.32 % w/w
same,Assay (% w/w),"[2]; 1 month storage, 0° C.",31.08 % w/w
same,Recovery of active ingredient (% of initial assay),"[2]; 1 month storage, 0° C.",99.56 % w/w
same,Assay (% w/w),"[2]; 1 month storage, 40° C.",30.65 % w/w
same,Recovery of active ingredient (% of initial assay),"[2]; 1 month storage, 40° C.",98.17 % w/w
same,Assay (% w/w),"[2]; 1 month storage, T/C",30.89 % w/w
same,Recovery of active ingredient (% of initial assay),"[2]; 1 month storage, T/C",98.95 % w/w
same,Assay (% w/w),"[2]; 2 month storage, 0° C.",30.30 % w/w
same,Recovery of active ingredient (% of initial assay),"[2]; 2 month storage, 0° C.",97.06 % w/w
same,Assay (% w/w),"[2]; 2 month storage, 40° C.",29.43 % w/w
same,Recovery of active ingredient (% of initial assay),"[2]; 2 month storage, 40° C.",94.28 % w/w
same,Assay (% w/w),"[2]; 2 month storage, T/C",29.88 % w/w
same,Recovery of active ingredient (% of initial assay),"[2]; 2 month storage, T/C",95.73 % w/w
same,Assay (% w/w),"[2]; 2 wks, 54° C.",30.55 % w/w
same,Recovery of active ingredient (% of initial assay),"[2]; 2 wks, 54° C.",97.86 % w/w
same,Assay (% w/w),"[2]; 3 month storage, 0° C.",30.06 % w/w
same,Recovery of active ingredient (% of initial assay),"[2]; 3 month storage, 0° C.",96.31 % w/w
same,Assay (% w/w),"[2]; 3 month storage, 25° C.",30.03 % w/w
same,Recovery of active ingredient (% of initial assay),"[2]; 3 month storage, 25° C.",96.21 % w/w
same,Assay (% w/w),"[2]; 3 month storage, 40° C.",29.37 % w/w
same,Recovery of active ingredient (% of initial assay),"[2]; 3 month storage, 40° C.",94.07 % w/w
same,Assay (% w/w),"[2]; 3 month storage, −10° C.",30.49 % w/w
same,Recovery of active ingredient (% of initial assay),"[2]; 3 month storage, −10° C.",97.68 % w/w
same,Assay (% w/w),[2]; F/T sample,31.13 % w/w
same,Recovery of active ingredient (% of initial assay),[2]; F/T sample,99.73 % w/w
same,Assay (% w/w),[2]; Initial,31.22 % w/w
"COc1nn(C(=O)[N-]S(=O)(=O)c2ccccc2OC(F)(F)F)c(=O)n1C.[Na+] [Flucarbazone, Flucarbazone Sodium]",Assay (% w/w),"[1]; 1 month storage, 0° C.",1.89 % w/w
same,Assay (% w/w),"[1]; 1 month storage, 40° C.",1.90 % w/w
same,Assay (% w/w),"[1]; 1 month storage, T/C",1.90 % w/w
same,Assay (% w/w),"[1]; 1 month storage, −10° C.",1.90 % w/w
same,Assay (% w/w),"[1]; 2 month storage, 0° C.",1.93 % w/w
same,Assay (% w/w),"[1]; 2 month storage, 40° C.",1.91 % w/w
same,Assay (% w/w),"[1]; 2 month storage, T/C",1.93 % w/w
same,Assay (% w/w),"[1]; 2 month storage, −10° C.",1.93 % w/w
same,Assay (% w/w),"[1]; 2 wks, 54° C.",1.90 % w/w
same,Assay (% w/w),"[1]; 3 month storage, 0° C.",1.98 % w/w
same,Assay (% w/w),"[1]; 3 month storage, 25° C.",1.99 % w/w
same,Assay (% w/w),"[1]; 3 month storage, 40° C.",1.94 % w/w
same,Assay (% w/w),"[1]; 3 month storage, T/C",1.98 % w/w
same,Assay (% w/w),"[1]; 3 month storage, −10° C.",1.99 % w/w
same,Assay (% w/w),"[1]; 6 month storage, 25° C.",1.92 % w/w
same,Assay (% w/w),"[1]; 9 month storage, 25° C.",1.92 % w/w
same,Assay (% w/w),"[1]; 12 month storage, 25° C.",1.92 % w/w
same,Assay (% w/w),[1]; F/T Sample,1.92 % w/w
same,Assay (% w/w),[1]; initial,1.91 % w/w
same,Assay (% w/w),"[2]; 1 month storage, 0° C.",1.81 % w/w
same,Recovery of active ingredient (% of initial assay),"[2]; 1 month storage, 0° C.",99.67 % w/w
same,Assay (% w/w),"[2]; 1 month storage, 40° C.",1.85 % w/w
same,Recovery of active ingredient (% of initial assay),"[2]; 1 month storage, 40° C.",101.98 % w/w
same,Assay (% w/w),"[2]; 1 month storage, T/C",1.83 % w/w
same,Recovery of active ingredient (% of initial assay),"[2]; 1 month storage, T/C",101.13 % w/w
same,Assay (% w/w),"[2]; 2 month storage, 0° C.",′1.81 % w/w
same,Recovery of active ingredient (% of initial assay),"[2]; 2 month storage, 0° C.",99.76 % w/w
same,Assay (% w/w),"[2]; 2 month storage, 40° C.",1.80 % w/w
same,Recovery of active ingredient (% of initial assay),"[2]; 2 month storage, 40° C.",99.54 % w/w
same,Assay (% w/w),"[2]; 2 month storage, T/C",1.82 % w/w
same,Recovery of active ingredient (% of initial assay),"[2]; 2 month storage, T/C",100.35 % w/w
same,Assay (% w/w),"[2]; 2 wks, 54° C.",1.68 % w/w
same,Recovery of active ingredient (% of initial assay),"[2]; 2 wks, 54° C.",92.84 % w/w
same,Assay (% w/w),"[2]; 3 month storage, 0° C.",1.80 % w/w
same,Recovery of active ingredient (% of initial assay),"[2]; 3 month storage, 0° C.",99.13 % w/w
same,Assay (% w/w),"[2]; 3 month storage, 25° C.",1.79 % w/w
same,Recovery of active ingredient (% of initial assay),"[2]; 3 month storage, 25° C.",98.51 % w/w
same,Assay (% w/w),"[2]; 3 month storage, 40° C.",1.72 % w/w
same,Recovery of active ingredient (% of initial assay),"[2]; 3 month storage, 40° C.",95.13 % w/w
same,Assay (% w/w),"[2]; 3 month storage, −10° C.",1.78 % w/w
same,Recovery of active ingredient (% of initial assay),"[2]; 3 month storage, −10° C.",98.44 % w/w
same,Assay (% w/w),[2]; F/T sample,1.80 % w/w
same,Recovery of active ingredient (% of initial assay),[2]; F/T sample,99.26 % w/w
same,Assay (% w/w),[2]; Initial,1.81 % w/w
"CCCCCCC(C)OC(=O)COc1nc(F)c(Cl)c(N)c1Cl (stereo not drawn) [Fluroxypyr, Fluroxypyr Meptyl]",Assay (% w/w),"[1]; 1 month storage, 0° C.",11.47 % w/w
same,Assay (% w/w),"[1]; 1 month storage, 40° C.",11.50 % w/w
same,Assay (% w/w),"[1]; 1 month storage, T/C",11.52 % w/w
same,Assay (% w/w),"[1]; 1 month storage, −10° C.",11.49 % w/w
same,Assay (% w/w),"[1]; 2 month storage, 0° C.",11.56 % w/w
same,Assay (% w/w),"[1]; 2 month storage, 40° C.",11.56 % w/w
same,Assay (% w/w),"[1]; 2 month storage, T/C",11.55 % w/w
same,Assay (% w/w),"[1]; 2 month storage, −10° C.",11.55 % w/w
same,Assay (% w/w),"[1]; 2 wks, 54° C.",11.63 % w/w
same,Assay (% w/w),"[1]; 3 month storage, 0° C.",11.63 % w/w
same,Assay (% w/w),"[1]; 3 month storage, 25° C.",11.68 % w/w
same,Assay (% w/w),"[1]; 3 month storage, 40° C.",11.69 % w/w
same,Assay (% w/w),"[1]; 3 month storage, T/C",11.71 % w/w
same,Assay (% w/w),"[1]; 3 month storage, −10° C.",11.71 % w/w
same,Assay (% w/w),"[1]; 6 month storage, 25° C.",11.36 % w/w
same,Assay (% w/w),"[1]; 9 month storage, 25° C.",11.56 % w/w
same,Assay (% w/w),"[1]; 12 month storage, 25° C.",11.63 % w/w
same,Assay (% w/w),[1]; F/T Sample,11.61 % w/w
same,Assay (% w/w),[1]; initial,11.60 % w/w
same,Assay (% w/w),"[2]; 1 month storage, 0° C.",11.25 % w/w
same,Recovery of active ingredient (% of initial assay),"[2]; 1 month storage, 0° C.",99.37 % w/w
same,Assay (% w/w),"[2]; 1 month storage, 40° C.",11.24 % w/w
same,Recovery of active ingredient (% of initial assay),"[2]; 1 month storage, 40° C.",99.33 % w/w
same,Assay (% w/w),"[2]; 1 month storage, T/C",11.25 % w/w
same,Recovery of active ingredient (% of initial assay),"[2]; 1 month storage, T/C",99.36 % w/w
same,Assay (% w/w),"[2]; 2 month storage, 0° C.",11.19 % w/w
same,Recovery of active ingredient (% of initial assay),"[2]; 2 month storage, 0° C.",98.83 % w/w
same,Assay (% w/w),"[2]; 2 month storage, 40° C.",11.13 % w/w
same,Recovery of active ingredient (% of initial assay),"[2]; 2 month storage, 40° C.",98.36 % w/w
same,Assay (% w/w),"[2]; 2 month storage, T/C",11.17 % w/w
same,Recovery of active ingredient (% of initial assay),"[2]; 2 month storage, T/C",98.68 % w/w
same,Assay (% w/w),"[2]; 2 wks, 54° C.",11.26 % w/w
same,Recovery of active ingredient (% of initial assay),"[2]; 2 wks, 54° C.",99.48 % w/w
same,Assay (% w/w),"[2]; 3 month storage, 0° C.",11.23 % w/w
same,Recovery of active ingredient (% of initial assay),"[2]; 3 month storage, 0° C.",99.21 % w/w
same,Assay (% w/w),"[2]; 3 month storage, 25° C.",11.20 % w/w
same,Recovery of active ingredient (% of initial assay),"[2]; 3 month storage, 25° C.",98.92 % w/w
same,Assay (% w/w),"[2]; 3 month storage, 40° C.",11.21 % w/w
same,Recovery of active ingredient (% of initial assay),"[2]; 3 month storage, 40° C.",99.04 % w/w
same,Assay (% w/w),"[2]; 3 month storage, −10° C.",11.13 % w/w
same,Recovery of active ingredient (% of initial assay),"[2]; 3 month storage, −10° C.",98.30 % w/w
same,Assay (% w/w),[2]; F/T sample,11.28 % w/w
same,Recovery of active ingredient (% of initial assay),[2]; F/T sample,99.68 % w/w
same,Assay (% w/w),[2]; Initial,11.32 % w/w
